Test results as given in US4173641A, “Di-O-n-alkyl glycerol derivatives as immune stimulants” (priority 1978, dated 1979).
“And” between values parts separate entries of the source, which are not always exact repeats. Equal values may be shown once. Where a name gives a salt, the structure may show the parent alone. Read-outs that look alike come from different tables or passages of the source.

Assays:
[1] = test system: S-180J cells (sarcoma 180J); test: Sarcoma 180J model for assessment of tumor rejection; assay type: in vivo, female CD-1 mice; settings: for number of 40 day survivors: six mice per group
Description: Six female CD-1 mice (20-25 g) per group received 10^6 S-180J cells which were 5 to 8 days old by intraperitoneal administration. On the day following tumor innoculation the mice received 0.1 ml of the test compound formulated in the fat emulsion vehicle Intralipid (Cutter Laboratories) at the desired dose and were then observed until death or 40 days, whichever occurs first. Results are expressed as increased percent life span (%ILS), defined as follows: [formula] Results obtained by the above test procedure were as follows:
Results of the above test obtained with (1-hydroxy-2-alkylamino ethyl)-benzyloxy analogs of this invention formulated in Tween 80-glycerol-water are shown in Table 2.
(Numbers in parentheses in Tables 1 and 2 above are the number

in vivo = test: in vivo; design: species or system mice and rats; settings: read-out: therapeutic index
Description: The compounds may be used in pharmaceutical preparations containing the compound or a pharmaceutically acceptable salt thereof in combination with a pharmaceutically acceptable carrier or diluent. A particularly preferred type of pharmaceutical carrier for this purpose is a sterile fat or lipid emulsion vehicle. […] Such advantages have been reported for other compounds used with such fat emulsion vehicles, see for example Fortner, et al., American Journal of Hospital Pharmacy, 32, 502 (1975) and Jeppsson, et al., First International Conference on Pharmaceutical technology, Faculty of Pharmacy, Paris-Sud, June 1977. An example of a particularly suitable vehicle is Intralipid (Cutter Laboratories, Berkeley, California), a 10% fat emulsion, based on soybean oil. However, other similar vehicles would be suitable and may be readily prepared by those skilled in the art.

[2] = test system: L 1210 cells / peritoneal macrophages; test: Assessment of peritoneal macrophage activation (inhibition of DNA synthesis in L 1210 cells); assay type: in vivo, mice; settings: Mus musculus, L1210, ip, intraperitoneal, macrophages harvested 72 hours later
Description: (§1) Mice were injected intraperitoneally with saline or the test compound. Macrophages were harvested 72 hours later by intraperitoneal injection of 3 ml 8% fetal calf serum-- 92% RPMI 1640 medium (Grand Island Biological Co., N.Y.) (164092 FCS8) plus 5 units/ml of heparin, the temperature of all media being kept at 37° C., lavaged 1 to 2 minutes, opened and all peritoneal fluid drawn off with a sterile, siliconized pipet into a 50 ml plastic tube kept in ice. The macrophages were counted using a hemocytometer and adjusted to a concentration of 1.5×10^6 /ml with 164092 FCS8. The cells were then placed in multiwell plates, 1.5×10^6 cells per well, and incubated for 1 to 2 hours at 37° C. in a 5% carbon dioxide atmosphere. The supernate was discarded and the cells were washed once with media, the macrophages adhering to the bottom of the wells. L 1210 cells (harvested from ascites of DBA mice approximately 5 days after innoculation) in 164092 FCS8 were then added, 1 ml of 1×10^5 cells/ml to each well and incubated at 37° C. for 24 to 30 hours in a 5% carbon dioxide atmosphere. The cells were then pulsed with ^3 H-Tdr (1.0μCi/ml; Amersham/Searles) for 6 hours at 37° C., the supernate drawn off using a cell harvester: Reeve-Angel filter, and washed five times with saline. The filter discs were allowed to dry and placed in scintillation vials with LSC scintillation fluid (5.0 g PPO and 0.2 g POPOP/liter toluene; Yorktown Research). Counting was done for 2 minutes using a Beekman LS-250 β-counter.

Influenza virus = test: Vaccine adjuvanticity - hemagglutination inhibition test; assay type: in vivo, Hartley female guinea pigs (vaccinated); influenza virus; settings: for Hemagglutination Titer: compound (5 mg) with Fluogen, individual animal
[3] = test system: L1210 cells / peripheral blood monocytes; test: Assessment of peripheral blood monocyte activation (inhibition of DNA synthesis in L1210 cells); assay type: in vivo, rats; settings: Rattus norvegicus, intravenous, monocytes harvested 72 hours later, Effector:Target ratio 15:1
Description: as §1, with “The cells were then pulsed with ^3 H-Tdr (1.0μCi/ml; Amersham/Searles) for 6 hours at 37° C., the supernate drawn off using a cell harvester: Reeve-Angel filter, and washed five times with saline. The filter discs were allowed to dry and placed in scintillation vials with LSC scintillation fluid (5.0 g PPO and 0.2 g POPOP/liter toluene; Yorktown Research). Counting was done for 2 minutes using a Beekman LS-250 β-counter.” left out
Rats were injected intravenously with the test compound, or with saline for control animals. […] Following the procedure described in Example 13 the cells were pulsed with ^3 H-Tdr and counted with a scintillation counter.

[4] = 5 mg/kg, Tween 80-glycerol-water
[5] = 15 mg/kg, Tween 80-glycerol-water
[6] = 50 mg/kg, Tween 80-glycerol-water
[7] = 0.25 mg/kg, fat emulsion vehicle Intralipid
[8] = 1 mg/kg, fat emulsion vehicle Intralipid
[9] = 4 mg/kg, fat emulsion vehicle Intralipid
[10] = 16 mg/kg, fat emulsion vehicle Intralipid

| SMILES | %ILS (increased percent life span) [1, 4] [%] | number of 40 day survivors [1, 4] | %ILS (increased percent life span) [1, 5] [%] | %ILS (increased percent life span) [1, 6] [%] | number of 40 day survivors [1, 6] | %ILS (increased percent life span) [1, 7] [%] | %ILS (increased percent life span) [1, 8] [%] | %ILS (increased percent life span) [1, 9] [%] | %ILS (increased percent life span) [1, 10] [%] | other results |
| --- | --- | --- | --- | --- | --- | --- | --- | --- | --- | --- |
| CCCCCCCCCCCCCCCCOCC(COCCCCCCCCCCCCCCCC)OCc1cccc(C(O)CNC(C)(C)C)c1 (stereo not drawn) [C(CH3)3 1,3] | 159 | 1 | 171 | 157 | 2 |  |  |  |  | number of 40 day survivors [1, 5]: 3 |
| CCCCCCCCCCCCCCCCOCC(COCc1cccc(C(O)CNC(C)(C)C)c1)OCCCCCCCCCCCCCCCC.Cl (stereo not drawn) [C(CH3)3 2,3, 1,2-Di-O-(n-hexadecyl)-3-O-[3-(1-hydroxy-2-t-butylaminoethyl)benzyl]-glycerol hydrochloride] | 166 | 2 | 181 | 182 | 4 |  |  |  |  | number of 40 day survivors [1, 5]: 4 |
| CCCCCCCCCCCCCCCCOCC(COCc1cccc(C(O)CNC(C)C)c1)OCCCCCCCCCCCCCCCC (stereo not drawn) [CH(CH3)2 2,3] | 174 | 1 | 135 | 147 | 1 |  |  |  |  |  |
| CCCCCCCCOCC(CN1CCC(CN)(c2ccccc2)CC1)OCCCCCCCC (stereo not drawn) [n-C8 H17] |  |  |  |  |  | 113 | 109 | 154 | 192 | selectivity ratio (in vivo; Tween 80-glycerol-water formulations): ~3; selectivity ratio (in vivo; sterile fat or lipid emulsion vehicle, parenteral and intravenous): 15 to 25; number of 40 day survivors ([1]; 4 mg/kg, Intralipid): 1; number of 40 day survivors ([1]; 16 mg/kg, Intralipid): 4 |
| CCCCCCCCCCOCC(CN1CCC(CN)(c2ccccc2)CC1)OCCCCCCCCCC (stereo not drawn) [n-C10 H21, 4-Aminomethyl-1-[2,3-(di-n-decyloxy)-n-propyl]-4-phenylpiperidine] |  |  |  |  |  | 127 | 139 | 110 | 108 | inhibition at 0.313 mg/kg ([2]; 0.313 mg/kg): 56%; inhibition at 0.625 mg/kg ([2]; 0.625 mg/kg): 94%; inhibition at 1.25 mg/kg ([2]; 1.25 mg/kg): 76%; number of 40 day survivors ([1]; 1 mg/kg, Intralipid): 1; Hemagglutination Titer (Influenza virus; day 15 after primary sensitization): 10 and 0; Hemagglutination Titer (Influenza virus; day 30 after primary sensitization (rechallenge day)): 10 and 40 and 20 and 0; Hemagglutination Titer (Influenza virus; day 44 after primary sensitization, rechallenged at 30 days): 80 and 640 and 10 and 40; Hemagglutination Titer (Influenza virus; day 65 after primary sensitization, rechallenged at 30 days): 1280 and 2560 and 160 and 20 and 10; hemagglutination titer observed after rechallenge (adjuvant activity) (Influenza virus; compound with Fluogen, in words): higher hemagglutination titer observed after rechallenge; inhibition at 1.25 mg/kg [3]: 80% |
| CCCCCCCCCCCCCCOCC(CN1CCC(CN)(c2ccccc2)CC1)OCCCCCCCCCCCCCC (stereo not drawn) [n-C14 H29] |  |  |  |  |  | 129 | 116 | 133 | 109 | inhibition at 25 mg/kg ([2]; 25 mg/kg): 90%; number of 40 day survivors ([1]; 0.25 mg/kg, Intralipid): 1 |
| CCCCCCCCCCCCCCCCOCC(CN1CCC(CN)(c2ccccc2)CC1)OCCCCCCCCCCCCCCCC (stereo not drawn) [n-C16 H33, 4-Aminomethyl-1-[2,3-(di-n-hexadecyloxy)-n-propyl]-4-phenylpiperidine Dihydrochloride] |  |  |  |  |  | 110 | 105 | 104 | 127 |  |
| CCCCCCCCCCCCCCCCCCOCC(CN1CCC(CN)(c2ccccc2)CC1)OCCCCCCCCCCCCCCCCCC (stereo not drawn) [n-C18 H37] |  |  |  |  |  | 119 | 158 | 98 | 109 | number of 40 day survivors ([1]; 1 mg/kg, Intralipid): 2 |
